Experiments:
[1] = molecular target: T1, NMDA NR1/NR2B receptor (Homo sapiens, UniProt Q13224); assay: In vitro NMDA NR1/NR2B cell assay (FLIPR, intracellular calcium induced by glycine/glutamate); type: cell-based; conditions: see Table 2
T1 construct: host or cells: HEK293, tetracycline-inducible expression
Procedure: (§1) A human HEK293 cell line with tetracyclin-inducible expression of NMDA NR1/NR2B receptor was used as a test system for compound efficacy and potency. The cell line was purchased from ChanTest, Catalog #CT6121. Compound activity was determined by measuring the effect of compounds on intracellular calcium concentration induced by glycine/glutamate agonism in a FLIPRtetra system (Molecular Devices).
(§2) The cells were obtained as frozen cells in cryo-vials and stored until use at −150° C. Cells were grown in culture medium (DMEM/F12, 10% FBS, 5 μg/mL Blasticidin, 150 μg/mL Zeozin, 500 μg/mL Geneticin). […] For sub-culturing the cells were detached from flasks by Versene. For the assay, cells were detached, washed twice with induction medium (DMEM/F12 without glutamine, 10% FBS, 2 μg/mL Tetracycline, 2 mM Ketamine) and seeded to 384 well pure coat amine plates (Becton Dickinson, 50000 cells per well in 50 μl) 48 h prior to assay in induction medium.
(§3) The test compounds were dissolved in 100% DMSO at a concentration of 10 mM and in a first step diluted in DMSO to a concentration of 5 mM, followed by serial dilution steps in 100% DMSO. Dilution factor and number of dilution steps may vary according to needs. Typically 8 different concentrations by 1:5 dilutions were prepared in duplicate, further intermediate dilutions (1:37.5) of the substances were carried out with aqueous assay buffer (137 mM NaCl, 4 mM KCl, 1.8 mM CaCl2, 10 mM HEPES, 10 mM Glucose, pH 7.4) resulting in a compound concentration 3 times above the final test concentration and DMSO at 2.7% resulting in 0.9% final DMSO concentration in the assay.
(§4) At the assay day cells were washed 3× with assay buffer (as described above), 10 μL buffer remained in the wells after washing. 10 μL Ca kit loading buffer (AAT Bioquest; prepared from the kit containing the following components: Component A: Fluo-8 NW dissolved in 200 μL DMSO and 20 μl of this solution are mixed with 10 ml buffer prepared out of component B and C, Component B: 10× Pluronic® F127 Plus diluted 1:10 in component C, Component C: HHBS (Hanks with 20 mM Hepes) was added to the cells and the plates were incubated with lid for 60 minutes at room temperature. 20 μl assay buffer containing 60 μM glycine (20 μM final) and 3 μM glutamate (1 μM final) was added to column 1-23, column 24 got assay buffer without glycine/glutamate to serve as negative unstimulated control. Fluorescence (indicating the calcium influx as a result of the NR1/NR2B ion channel activation) was read on the FLIPRtetra device for 60 seconds to monitor the glutamate induced effects. After 2 minutes 20 μL of compound dilution prepared as described above or controls (row 1-22) in assay buffer were carefully added to the wells. […] The average of 2 measurements at 5 minutes and […] 10 seconds after compound addition is calculated and further used for IC50 calculations. Each assay microtiter compound dilution plate contained wells (in column 23 or 24) with DMSO controls instead of compound as controls for glycine/glutamate induced fluorescence (high controls) and wells with 1 μM of a reference NR2B NAM as low controls (Compound 22; reference: Layton, Mark E et al, ACS Chemical Neuroscience 2011, 2(7), 352-362).
(§5) The output file of the reader contains the well number and measured average fluorescence units. For data evaluation and calculation, the measurement of the low control was set as 0% control and the measurement of the high control was set as 100% control. The IC50 values were calculated using the standard 4 parameter logistic regression formula. Calculation: [y=(a−d)/(1+(x/c)^b)+d], a=low value, d=high value; x=conc M; c=IC50 M; b=slope.

[2] = molecular target: T2, Nav1.6 (Homo sapiens, UniProt Q9UQD0); assay: Nav 1.6 inhibition, IonWorks Quattro electrophysiology; type: cell-based
Procedure: Determination of Nav 1.6.Inhibition
IonWorks Quattro electrophysiological platform
The compounds were prepared in DMSO at 300× the final assay concentrations of 1 and 5 μM.
The 300×DMSO stock solutions were transferred into assay plates where 2 μl per well of each 300× stock solution were placed. All assay plates were stored at −80° C. until the day of assay.
On the day of the assay, the appropriate assay plate was thawed at room temperature, centrifuged, and 198 μl of external recording solution was added and mixed thoroughly. This provided a 1:100 dilution. A further 1:3 dilution occurred upon addition to the cells in the IonWorks Quattro electrophysiological platform, giving a 1:300 dilution in total. On each assay plate, at least 8 wells were reserved for vehicle control (0.3% DMSO) and at least 8 wells for each positive control specific to the cell line tested. The positive controls were tested at a maximal blocking and an approximate IC50 concentration. As positive control Lidocaine at concentrations of 30 and 1000 μM was used.
The solutions for recording Nav1.6 currents were as follows:
Amphotericin B was used to obtain electrical access to the cell interior at a final concentration of 200 μg/ml in internal recording solution.
State-dependent inhibition: Sodium channels when held at depolarized potential or long test pulse, the channels open and inactivate and then stay inactivated until the membrane potential is stepped back to hyperpolarized potentials, when the inactivated channels recover from inactivation into closed state.
Cells were held at −120 mV. In order to completely inactivate the sodium channels (pulse 1), the cells were pulsed to +0 mV for 2500 ms and stepped back to −120 mV for 10 ms (to completely recover from inactivation, however channels that had drugs bound to them will not recover from inactivation) before stepping to +0 mV for 20 ms (pulse 2).
Both the positive and vehicle control data associated with each cell line assayed are shown below as an example. The mean is shown for each positive and negative control as solid symbol with the total number of individual well replicates given next to the solid symbol. In addition, the individual data of each well are shown on the graph as open symbols so that the variation about the mean value can be readily assessed.
Shown below are the assay controls for the Nav1.6 IonWorks Quattro assay.
Tables 3 and 4 show the normalized percentage inhibition of Nav1.6 channel. […] (see also the figure Assay Control Results above).

[3] = molecular target: T2, Nav1.6; conditions: reported in WO2015/130905; cited from earlier work
[4] = molecular target: T3, NMDA NR1/NR2B receptor (Homo sapiens, UniProt Q05586+Q13224); assay: In vitro NMDA NR1/NR2B cell assay (FLIPR, intracellular calcium induced by glycine/glutamate); type: cell-based; conditions: HEK293 cells expressing NMDA NR1/NR2B; 20 μM glycine, 1 μM glutamate; read-out: IC50 (in vitro NR2B affinity, FLIPR assay)
T3 construct: host or cells: HEK293, tetracycline-inducible expression
Procedure: as §1, §2, §3, §4, §5

T2 sequence (Q9UQD0 whole entry): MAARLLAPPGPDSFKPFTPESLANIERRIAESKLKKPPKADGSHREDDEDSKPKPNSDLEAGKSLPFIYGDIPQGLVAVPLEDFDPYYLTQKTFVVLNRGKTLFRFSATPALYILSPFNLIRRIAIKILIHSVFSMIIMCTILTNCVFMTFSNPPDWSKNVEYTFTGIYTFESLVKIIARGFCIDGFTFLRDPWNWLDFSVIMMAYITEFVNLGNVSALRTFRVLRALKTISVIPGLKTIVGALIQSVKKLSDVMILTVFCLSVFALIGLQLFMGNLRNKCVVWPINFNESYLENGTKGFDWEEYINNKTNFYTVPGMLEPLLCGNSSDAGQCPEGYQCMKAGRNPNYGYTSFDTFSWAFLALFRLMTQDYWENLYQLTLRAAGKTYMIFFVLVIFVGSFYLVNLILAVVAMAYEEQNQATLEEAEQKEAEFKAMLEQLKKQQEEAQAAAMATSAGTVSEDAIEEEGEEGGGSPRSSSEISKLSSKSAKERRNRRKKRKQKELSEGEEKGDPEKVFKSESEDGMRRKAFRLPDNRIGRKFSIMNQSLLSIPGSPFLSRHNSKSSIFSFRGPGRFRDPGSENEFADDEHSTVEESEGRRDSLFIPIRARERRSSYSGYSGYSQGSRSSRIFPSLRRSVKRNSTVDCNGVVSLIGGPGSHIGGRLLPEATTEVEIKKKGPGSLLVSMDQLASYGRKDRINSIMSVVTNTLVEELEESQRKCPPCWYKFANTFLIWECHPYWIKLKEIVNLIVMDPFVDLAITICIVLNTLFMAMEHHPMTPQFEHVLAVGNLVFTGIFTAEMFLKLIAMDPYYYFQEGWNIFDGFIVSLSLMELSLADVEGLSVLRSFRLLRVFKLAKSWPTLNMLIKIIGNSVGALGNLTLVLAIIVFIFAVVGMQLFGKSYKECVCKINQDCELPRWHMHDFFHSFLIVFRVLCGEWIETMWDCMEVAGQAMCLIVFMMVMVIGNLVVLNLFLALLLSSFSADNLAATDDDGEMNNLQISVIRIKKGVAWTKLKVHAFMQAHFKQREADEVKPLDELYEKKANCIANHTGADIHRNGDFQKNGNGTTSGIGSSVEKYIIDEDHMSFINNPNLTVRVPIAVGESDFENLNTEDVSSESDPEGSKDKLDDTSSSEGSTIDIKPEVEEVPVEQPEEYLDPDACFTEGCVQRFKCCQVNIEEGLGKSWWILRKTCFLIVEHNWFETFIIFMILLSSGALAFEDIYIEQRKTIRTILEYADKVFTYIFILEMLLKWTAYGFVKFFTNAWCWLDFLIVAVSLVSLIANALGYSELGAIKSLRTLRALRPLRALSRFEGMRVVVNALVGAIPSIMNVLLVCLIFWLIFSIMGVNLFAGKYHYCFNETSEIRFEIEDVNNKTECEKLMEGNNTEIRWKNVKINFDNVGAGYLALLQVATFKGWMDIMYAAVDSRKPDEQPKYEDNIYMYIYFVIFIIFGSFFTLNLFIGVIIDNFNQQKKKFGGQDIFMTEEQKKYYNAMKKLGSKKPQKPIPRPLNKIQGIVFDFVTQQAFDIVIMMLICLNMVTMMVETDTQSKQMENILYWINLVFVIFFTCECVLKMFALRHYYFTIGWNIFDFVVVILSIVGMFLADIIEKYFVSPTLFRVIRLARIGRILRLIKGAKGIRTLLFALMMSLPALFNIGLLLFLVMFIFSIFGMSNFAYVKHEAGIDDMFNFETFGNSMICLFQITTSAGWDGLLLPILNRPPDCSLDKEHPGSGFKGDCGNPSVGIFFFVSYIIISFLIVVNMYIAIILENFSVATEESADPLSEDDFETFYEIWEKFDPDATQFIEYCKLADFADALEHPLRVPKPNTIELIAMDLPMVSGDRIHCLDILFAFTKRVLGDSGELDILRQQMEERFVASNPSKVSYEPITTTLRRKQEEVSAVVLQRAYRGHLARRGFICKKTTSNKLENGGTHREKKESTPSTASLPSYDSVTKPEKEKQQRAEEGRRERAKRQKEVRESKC
T1 sequence (Q13224 27-1484, other chains not shown): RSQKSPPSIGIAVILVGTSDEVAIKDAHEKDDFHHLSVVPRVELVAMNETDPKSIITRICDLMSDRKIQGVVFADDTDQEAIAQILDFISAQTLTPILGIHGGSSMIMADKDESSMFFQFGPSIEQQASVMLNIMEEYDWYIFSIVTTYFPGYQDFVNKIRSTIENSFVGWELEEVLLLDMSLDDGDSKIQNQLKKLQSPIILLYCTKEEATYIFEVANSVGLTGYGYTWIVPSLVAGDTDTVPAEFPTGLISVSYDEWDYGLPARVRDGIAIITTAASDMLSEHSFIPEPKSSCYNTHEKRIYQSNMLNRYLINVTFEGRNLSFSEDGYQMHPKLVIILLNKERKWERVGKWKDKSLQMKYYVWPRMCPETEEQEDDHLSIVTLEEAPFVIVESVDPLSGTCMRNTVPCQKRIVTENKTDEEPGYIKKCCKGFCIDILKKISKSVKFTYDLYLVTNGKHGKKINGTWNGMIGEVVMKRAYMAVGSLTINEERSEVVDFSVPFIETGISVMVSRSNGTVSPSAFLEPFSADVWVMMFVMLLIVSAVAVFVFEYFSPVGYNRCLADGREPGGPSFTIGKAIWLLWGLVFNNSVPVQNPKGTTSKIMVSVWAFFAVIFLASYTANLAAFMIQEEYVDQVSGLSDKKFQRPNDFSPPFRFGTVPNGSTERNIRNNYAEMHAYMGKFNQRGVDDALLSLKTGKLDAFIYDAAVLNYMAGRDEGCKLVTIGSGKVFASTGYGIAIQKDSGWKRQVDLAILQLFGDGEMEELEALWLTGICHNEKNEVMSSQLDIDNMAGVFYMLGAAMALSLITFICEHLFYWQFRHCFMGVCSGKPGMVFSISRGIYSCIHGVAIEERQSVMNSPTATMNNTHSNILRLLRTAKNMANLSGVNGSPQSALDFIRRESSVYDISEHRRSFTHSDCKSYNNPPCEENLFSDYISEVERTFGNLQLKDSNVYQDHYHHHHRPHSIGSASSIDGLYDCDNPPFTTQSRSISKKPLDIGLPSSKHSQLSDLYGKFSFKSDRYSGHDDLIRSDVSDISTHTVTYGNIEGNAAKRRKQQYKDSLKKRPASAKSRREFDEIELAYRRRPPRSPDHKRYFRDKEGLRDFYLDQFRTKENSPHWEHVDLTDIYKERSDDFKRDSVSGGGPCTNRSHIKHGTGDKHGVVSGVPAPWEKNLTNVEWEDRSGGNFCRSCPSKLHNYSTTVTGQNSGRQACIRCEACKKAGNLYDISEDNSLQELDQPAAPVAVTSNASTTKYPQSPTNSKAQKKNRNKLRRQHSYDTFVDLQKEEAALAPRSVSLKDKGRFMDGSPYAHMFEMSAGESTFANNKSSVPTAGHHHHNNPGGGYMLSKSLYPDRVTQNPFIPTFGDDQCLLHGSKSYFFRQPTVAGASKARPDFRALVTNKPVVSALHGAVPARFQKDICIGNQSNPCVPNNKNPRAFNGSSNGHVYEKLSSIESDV
T3 sequence (Q13224 27-1484, other chains not shown): as above

Compound	activity on the NR1-NR2B ion channel (in words) [1]	significant inhibition of the Nav 1.6 channel (in words) ([2]; at 5 μM)	significant inhibition of the Nav 1.6 channel (in words) ([2]; at 1 and 5 μM)	Nav 1.6 blockage [3] [µM]	IC50 [4] [µM]	inhibition at 1 µM ([2]; 1 μM, normalized to vehicle control (0%) and maximal inhibition control (100%)) [%]	inhibition at 5 µM ([2]; 5 μM, normalized to vehicle control (0%) and maximal inhibition control (100%)) [%]
O=C(C1CN(Cc2cccc(Oc3ccccc3)c2)CCO1)N1CCOCC1 (stereo not drawn) [Example 106 of WO2015/130905, reference compound]	do not show any activity	not showing any significant inhibition	do not show any significant inhibition	> 5	–	–	–
COCCNC(=O)C1CN(Cc2cccc(Oc3ccccc3)c2)CCO1 (stereo not drawn) [Example 107 of WO2015/130905, reference compound]	do not show any activity	–	do not show any significant inhibition	–	> 9.26	-8.5	13.1
